Patent US9901573B2, “Compositions, methods, and kits for regulating energy metabolism” (NuSirt Sciences, Inc., priority 2012, dated 2018)
Marks after values point to notes of the source that are not given here.

What was measured:
[1] = test system: 3T3-L1 adipocytes; assay: Glucose utilization (extracellular acidification) in adipocytes; format: cell-based; details: FIG. 10
Description: (§1) Cell Culture: C2C12 and 3T3-L1 preadipocytes (American Type Culture Collection) were plated at a density of 8000 cells/cm^2 (10 cm^2 dish) and grown in Dulbecco's modified eagle's medium (DMEM) containing 10% fetal bovine serum (FBS), and antibiotics (growth medium) at 37° C. in 5% CO2. Confluent 3T3-L1 preadipocytes were induced to differentiate with a standard differentiation medium consisting of DMEM medium supplemented with 10% FBS, 250 nM dexamethasone, 0.5 mM 3-Isobutyl-1-methylxanthine (IBMX) and 1% penicillin-streptomycin. Preadipocytes were maintained in this differentiation medium for 3 days and subsequently cultured in growth medium. Cultures were re-fed every 2-3 days to allow >90% cells to reach fully differentiation before conducting chemical treatment. […]
(§2) Glucose Utilization: In the absence of a fatty acid source and oxidative metabolism, glycolysis and subsequent lactate production results in extracellular acidification, which was also measured using a Seahorse Bioscience XF24 analyzer. […] Data for each sample were normalized to the pre-glucose injection baseline for that sample and expressed as % change from that baseline. The area under of the curve of extracellular acidification change from baseline for each sample was the calculated and used for subsequent analysis.

[2] = test system: Sirt1; assay: Sirt1 protein expression Western blot in myotubes; format: cell-based, mouse; details: C2C12 myotubes, FIG. 12
Description: as §1
Western blot: The Phospho-AMPKα (Thr172)- and Sirt1 (mouse specific)-antibody was obtained from Cell Signaling (Danvers, Mass.). […] Protein was measured by BCA kit (Thermo Scientific). […] Visualization and chemiluminescent detection was conducted using BioRad ChemiDoc instrumentation and software (Bio-Rad Laboratories, Hercules, Calif.) and band intensity was assessed using Image Lab 4.0 (Bio-Rad Laboratories, Hercules, Calif.), with correction for background and loading controls. P-AMPK was detected at 61-66 kDA and Sirt1 was detected at 104-115 kDA.

[3] = test system: Phospho-AMPKα (Thr172); assay: Phospho-AMPKα (Thr172) Western blot in myotubes; format: cell-based; details: C2C12 myotubes, FIG. 11
Description: (§3) Cell Culture: C2C12 and 3T3-L1 preadipocytes (American Type Culture Collection) were plated at a density of 8000 cells/cm^2 (10 cm^2 dish) and grown in Dulbecco's modified eagle's medium (DMEM) containing 10% fetal bovine serum (FBS), and antibiotics (growth medium) at 37° C. in 5% CO2. Confluent 3T3-L1 preadipocytes were induced to differentiate with a standard differentiation medium consisting of DMEM medium supplemented with 10% FBS, 250 nM dexamethasone, 0.5 mM 3-Isobutyl-1-methylxanthine (IBMX) and 1% penicillin-streptomycin. Preadipocytes were maintained in this differentiation medium for 3 days and subsequently cultured in growth medium. Cultures were re-fed every 2-3 days to allow >90% cells to reach fully differentiation before conducting chemical treatment. For differentiation of C2C12 cells, cells were grown to 100% confluence, transferred to differentiation medium (DMEM with 2% horse serum and 1% penicillin-streptomycin), and fed with fresh differentiation medium every day until myotubes were fully formed (3 days).
Western blot: The Phospho-AMPKα (Thr172)- and Sirt1 (mouse specific)-antibody was obtained from Cell Signaling (Danvers, Mass.). C2C12 myotubes were treated as indicated in results and the cellular fractions were prepared using standard methods. Protein was measured by BCA kit (Thermo Scientific). […] Visualization and chemiluminescent detection was conducted using BioRad ChemiDoc instrumentation and software (Bio-Rad Laboratories, Hercules, Calif.) and band intensity was assessed using Image Lab 4.0 (Bio-Rad Laboratories, Hercules, Calif.), with correction for background and loading controls. P-AMPK was detected at 61-66 kDA and Sirt1 was detected at 104-115 kDA.

[4] = test system: 3T3-L1 adipocytes; assay: Intracellular Ca2+ by fura-2 imaging in adipocytes; format: cell-based
Description: Cell culture: 3T3-L1 pre-adipocytes were incubated at a density of 8000 cells/cm^2 (10 cm^2 dish) and grown in the absence of insulin in Dulbecco's modified Eagle's medium (DMEM) containing 10% FBS and antibiotics (1% penicillin-streptomycin)(adipocyte medium) at 37° C. in 5% CO2 in air. Confluent pre-adipocytes were induced to differentiate with a standard differentiation medium consisting of DMEM-F10 (1:1, vol/vol) medium supplemented with 1% fetal bovine serum (FBS), 250 nM dexamethasone (DEXA), isobutylmethylxanthine (IBMX) (0.5 mM) and antibiotics. Pre-adipocytes were maintained in this differentiation medium for 3 days (unless specifically indicated) and subsequently cultured in adipocyte medium. Cultures were re-fed every 2-3 days to allow 90% cells to reach fully differentiation before treatment.
Intracellular Ca^2+ ([Ca^2+]i): [Ca^2+]i was measured using a fura-2 dual wavelength fluorescence imaging system. Adipocytes were plated and differentiated in 35 mm dishes with glass coverslips (P35G-0-14-C, MatTek Corporation). Prior to [Ca^2+]i measurement, cells were preincubated in serum-free medium overnight and rinsed with Hepes Balanced Salt Solution (HBSS) containing the following components (in mM): NaCl 138, CaCl2 1.8, MgSO4 0.8, NaH2PO4 0.9, NaHCO3 4, glucose 5, glutamine 6, Hepes 20, and bovine serum albumin 1%. Cells were loaded with fura-2 acetoxymethyl ester (AM) (10 μM) in the same buffer for 2 hr at 37° C. in a dark incubator with 5% CO2. To remove extracellular dye, cells were rinsed with HBSS 3 times and then postincubated at room temperature for an additional 1 hr for complete hydrolysis of cytoplasmic fura-2 AM. The dishes with dye-loaded cells were mounted on the stage of Nikon TMS-F fluorescence inverted microscope with a Cohu 4915 CCD camera. Fluorescent images were captured alternatively at excitation wavelength of […] with an emission wavelength of 520 nm. [Ca^2]i was calculated using a standard ratio equation. Each analysis evaluated responses of 8-10 representative whole cells. Images were analyzed with InCytIm2 version 4.62 imaging software (Intracellular Imaging, Cincinnati, Ohio). Images were calibrated using a fura-2 calcium imaging calibration kit (Molecular Probes, Eugene, Oreg.) to create a calibration curve in solution, and cellular calibration was accomplished using digitonin (25 μM) and pH 8.7 Tris-EGTA (100 mM) to measure maximal and minimal [Ca^2+]i levels.

[5] = test system: C2C12 myotubes; assay: Glucose utilization (extracellular acidification) in myotubes; format: cell-based; details: FIG. 9
Description: as §1, §2

[6] = test system: C2C12 myotubes; assay: Fatty acid oxidation (O2 consumption response to palmitate) in myotubes; format: cell-based; details: vs control
Description: Cell Culture: C2C12 and 3T3-L1 preadipocytes (American Type Culture Collection) were plated at a density of 8000 cells/cm^2 (10 cm^2 dish) and grown in Dulbecco's modified eagle's medium (DMEM) containing 10% fetal bovine serum (FBS), and antibiotics (growth medium) at 37° C. in 5% CO2. Confluent 3T3-L1 preadipocytes were induced to differentiate with a standard differentiation medium consisting of DMEM medium supplemented with 10% FBS, 250 nM dexamethasone, 0.5 mM 3-Isobutyl-1-methylxanthine (IBMX) and 1% penicillin-streptomycin. Preadipocytes were maintained in this differentiation medium for 3 days and subsequently cultured in growth medium. Cultures were re-fed every 2-3 days to allow >90% cells to reach fully differentiation before conducting chemical treatment. For differentiation of C2C12 cells, cells were grown to 100% confluence, transferred to differentiation medium (DMEM with 2% horse serum and 1% penicillin-streptomycin), and fed with fresh differentiation medium every day until myotubes were fully formed (3 days). Fatty acid oxidation: Cellular oxygen consumption was measured using a Seahorse Bioscience XF24 analyzer (Seahorse Bioscience, Billerica, Mass.) in 24-well plates at 37° C., as described by Feige et al (1) with slight modifications. Cells were seeded at 40,000 cells per well, differentiated as described above, treated for 24 hours with the indicated treatments, washed twice with non-buffered carbonate-free pH 7.4 low glucose (2.5 mM) DMEM containing carnitine (0.5 mM), equilibrated with 550 μL of the same media in a non-CO2 incubator for 45 minutes, and then inserted into the instrument for 15 minutes of further equilibration, followed by O2 consumption measurement. Three successive baseline measurements at five-minute intervals were taken prior to injection of palmitate (200 μM final concentration). Four successive 5-minute measurements of O2 consumption were then conducted, followed by 10 minute re-equilibration and another 3-4 5-minute measurements. This measurement pattern was then repeated over a 4-6 hour period. Data for each sample were normalized to the pre-palmitate injection baseline for that sample and expressed as % change from that baseline. […] The area under of the curve of O2 consumption change from baseline for each sample was then calculated and used for subsequent analysis.

[7] = test system: C2C12 myotubes; assay: Mitochondrial biogenesis (mitochondrial mass, NAO probe); format: cell-based; details: FIG. 13
Description: as §3, with “days). Mitochondrial biogenesis: Mitochondrial biogenesis was assessed as change in mitochondrial mass, as previously described (2). The mitochondrial probe NAO (Invitrogen, Carlsbad, Calif.) was used to analyze mitochondrial mass by fluorescence (excitation 485 nm and emission 520 nm) and quantitative data was obtained with a fluorescence microplate reader (Synergy HT, BioTek Instruments, Winooski, Vt.). The intensity of fluorescence was expressed as arbitrary units per μg protein and normalized to control values within each assay.” for “days).”

[8] = test system: 3T3-L1 adipocytes; assay: Fatty acid oxidation (O2 consumption response to palmitate) in adipocytes; format: cell-based; details: FIG. 8, % change from control
Description: as §1
Fatty acid oxidation: Cellular oxygen consumption was measured using a Seahorse Bioscience XF24 analyzer (Seahorse Bioscience, Billerica, Mass.) in 24-well plates at 37° C., as described by Feige et al (1) with slight modifications. […] Data for each sample were normalized to the pre-palmitate injection baseline for that sample and expressed as % change from that baseline. […] The area under of the curve of O2 consumption change from baseline for each sample was then calculated and used for subsequent analysis.

[9] = FIG. 4/5, 24 hours, leucine, valine, isoleucine 0.5 mM, B6 100 nM as pyridoxal phosphate

SMILES	increase in glucose utilization [1]	Sirt1 protein levels, increase [2]	AMPK activation (Phosphorylated AMPK Thr172), increase [3]	Intracellular Ca2+ ([4]; PLP 50 nM)	Intracellular Ca2+ ([4]; PLP 100 nM)	increase in glucose utilization [5]	increase in fatty acid oxidation [6, 9]	increase in mitochondrial biogenesis (mitochondrial biomass) [7]	increase in fatty acid oxidation ([6]; FIG. 6/7, metformin 100 μM)	increase in fatty acid oxidation [8]
Cc1ncc(COP(=O)(O)O)c(C=O)c1O [PLP, pyridoxal phosphate]	no independent effect	unaffected	Neither treatment with leucine, valine, nor B6 alone exerted any significant effect	133.2^c ± nM	96.3^b ± nM	no independent effect	no significant independent effect			
CN(C)C(=N)N=C(N)N [metformin]								effect similar to leucine	comparable effect	
CC[C@H](C)[C@H](N)C(=O)O [isoleucine]							small change in fatty acid oxidation when compared to control	no significant effect		small change from baseline
CC(C)[C@H](N)C(=O)O [valine]			Neither treatment with leucine, valine, nor B6 alone exerted any significant effect				small change in fatty acid oxidation when compared to control	no significant effect		
